Values joined by “and” are separate entries in the source; they are usually repeats but may differ in a detail not shown here. Equal values may be shown once.

This note sets out measurements from ChEMBL document CHEMBL1125854, “Synthesis of substituted 5-amino-8-phenyl-3H,6H-1,4,5a,8a-tetraazaacenaphthalen-3-ones, a new class of agents for the improvement of cognition” (1991).

Assay type in all cases: functional
Assay [1] concerns Mus musculus. Kind of assay: Tested for hypoxic survival test by 100 mg/kg intraperitoneal administration and percent survival of mice was reported. As to conditions: ip.
Assay [2] has as its system Mus musculus. Kind of assay: Attenuation of anoxic-induced amnesia in mice treated with 100 mg/kg compound administered intraperitoneally was determined; 153-209. Particulars: route intraperitoneal.
Assay [3] concerns Mus musculus. Nature of the assay: Survival of mice after intraperitoneal administration of 50 mg/kg compound by using hypoxic survival test was determined. Particulars: ip.
In assay [4] the test system is Mus musculus. Kind of assay: (§1) Attenuation of anoxic-induced amnesia in mice treated with 100 mg/kg compound administered intraperitoneally was determined. Particulars: route intraperitoneal.
In assay [5] the test system is Mus musculus. Described as §1. As to conditions: route intraperitoneal. The source holds these as a separate data set.
The subject of assay [6] is Mus musculus. Kind of assay: Survival of mice after intraperitoneal administration of 100 mg/kg compound by using hypoxic survival test was determined. Particulars: ip.
For assay [7], the system named is Mus musculus. Nature of the assay: Attenuation of anoxic-induced amnesia in mice treated with 10 mg/kg compound administered intraperitoneally was determined. As to conditions: route intraperitoneal.
Assay [8] concerns Mus musculus. Kind of assay: Attenuation of anoxic-induced amnesia in mice treated with 25 mg/kg compound administered intraperitoneally was determined. Particulars: route intraperitoneal.
The test system of assay [9] is Mus musculus. Kind of assay: Tested for hypoxic survival test by 0.125 mg/kg intraperitoneal administration and percent survival of mice was reported; Value ranges from 60-80. Particulars: ip.
In assay [10] the test system is Mus musculus. Nature of the assay: Attenuation of anoxic-induced amnesia in mice treated with 0.1 mg/kg compound administered intraperitoneally was determined. Particulars: route intraperitoneal.

`CCNc1nc(=O)c2cnn3c2n1CC=C3c1ccccc1` came in with a survival at 100 mg/kg in assay [1] of 73%. Take `CC(C)Nc1nc(=O)c2cnn3c2n1CC=C3c1ccccc1`: the survival at 100 mg/kg in assay [1] is 20%. `CC(C)CNc1nc(=O)c2cnn3c2n1CC=C3c1cccc(C(F)(F)F)c1` gave an Improvement in [2] of 209%. In addition, the survival at 50 mg/kg in [3] stood at 50%. For the same compound, the Latency stood at 218 s in assay [4] and 51 s in assay [5].

In assay [6], `CCCCNc1nc(=O)c2cnn3c2n1CC=C3c1cccc(C(F)(F)F)c1` registered a survival at 100 mg/kg of 58%. In [1], `CC(C)CNc1nc(=O)c2cnn3c2n1CC=C3c1ccccc1` showed a survival at 100 mg/kg of 30%. Compound `CC(C)Nc1nc(=O)c2cnn3c2n1CC=C3c1cccc(C(F)(F)F)c1` registered a survival at 100 mg/kg in [6] of 15%. With `CNc1nc(=O)c2cnn3c2n1CC=C3c1ccccc1`, in [1], the survival at 100 mg/kg came out at 95%.

`CCNc1nc(=O)c2cnn3c2n1CC=C3c1cccc(C(F)(F)F)c1` came in with a survival at 100 mg/kg in assay [6] of 65%. `Nc1nc(=O)c2cnn3c2n1CC=C3c1cccc(C(F)(F)F)c1` yielded a Latency in assay [7] of 102 s. In addition, the survival at 100 mg/kg in [1] was 68%. In [5], this compound had an Improvement of 20% and a Latency of 180 s. For `CCCCNc1nc(=O)c2cnn3c2n1CC=C3c1ccccc1`, in assay [8], the Improvement was 67%; the Latency was 127 s and 132 s. The same compound registered a survival at 100 mg/kg in assay [1] of 70%. On to `CNC(=O)Oc1ccc2c(c1)[C@]1(C)CCN(C)[C@@H]1N2C` [PHYSOSTIGMINE], for which, in assay [9], the survival at 0.125 mg/kg amounted to 60%. For the same compound, in assay [10], the Improvement is on record as 36%.
